Assay results taken from patent publication US20170280720A1, “ARGININE […] INHIBITORS AND USES THEREOF” (EPIZYME, INC., priority 2014, published 2017).

Target: T1, Human CARM1 (PRMT4) (Homo sapiens, UniProt Q86X55)
T1 construct: Flag-CARM1-His; made in house; host or cells: HEK 293F cells (BacMam baculovirus, pFastBacMam)
T1 sequence (Q86X55 2-585 isoform Q86X55-1): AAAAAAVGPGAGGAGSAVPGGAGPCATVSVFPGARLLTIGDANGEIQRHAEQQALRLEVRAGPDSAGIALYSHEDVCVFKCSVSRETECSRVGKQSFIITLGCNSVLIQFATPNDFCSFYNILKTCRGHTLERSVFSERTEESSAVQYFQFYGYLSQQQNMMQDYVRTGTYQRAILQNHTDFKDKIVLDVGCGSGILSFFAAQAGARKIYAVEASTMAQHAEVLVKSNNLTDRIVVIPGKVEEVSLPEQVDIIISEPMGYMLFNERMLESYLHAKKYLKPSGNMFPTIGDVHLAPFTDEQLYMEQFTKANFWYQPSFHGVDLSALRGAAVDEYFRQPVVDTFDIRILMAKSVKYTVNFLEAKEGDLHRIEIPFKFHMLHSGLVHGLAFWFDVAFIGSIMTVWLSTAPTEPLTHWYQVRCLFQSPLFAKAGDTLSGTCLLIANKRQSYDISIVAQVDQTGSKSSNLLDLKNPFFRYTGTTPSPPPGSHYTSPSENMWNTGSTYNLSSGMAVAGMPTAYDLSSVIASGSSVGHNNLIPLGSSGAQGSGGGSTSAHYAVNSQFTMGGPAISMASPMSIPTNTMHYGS
Assay: CARM1 biochemical assay (3H-SAM Flashplate, peptide substrate)
Conditions: read-out: CARM1_ IC50
Source text: S-adenosylmethionine (SAM), S-adenosylhomocysteine (SAH), bicine, Tween20, dimethylsulfoxide (DMSO), bovine skin gelatin (BSG), sodium butyrate and Tris(2-carboxyethyl)phosphine hydrochloride solution (TCEP) were purchased from Sigma-Aldrich at the highest level of purity possible. ^3H-SAM was purchase from American Radiolabeled Chemicals with a specific activity of 80 Ci/mmol. 384-well streptavidin Flashplates were purchased from PerkinElmer.
Peptide representative of human histone H3 residues 16-30 was synthesized with an N-terminal linker-affinity tag motif and a C-terminal amide cap by 21st Century Biochemicals. The peptide was purified by high-performance liquid chromatography (HPLC) to greater than 95% purity and confirmed by liquid chromatography mass spectrometry (LC-MS). The sequence was Biot-Ahx-[…]-amide and contained a monomethylated arginine at position 26 (SEQ ID NO.: 14).
Human CARM1 (PRMT4) (NM_199141.1) transcript clone was amplified from an HEK 293 cDNA library, incorporating a flanking 5′ sequence encoding a FLAG tag ([…]) (SEQ ID NO.: 6) fused directly to Ala 2 of CARM1 and 3′ sequence encoding a hexa His sequence ([…]) (SEQ ID NO.: 15) fused directly to Ser 608. The gene sequence encoding isoform1 containing a deletion of amino acids 539-561 was amplified subsequently and subcloned into pFastBacMam (Viva Biotech).
Recombinant baculovirus were generated according to Bac-to-Bac kit instructions (Life Technologies). […] Infections were carried out at 37° C. for 48 hours, harvested by centrifugation, and stored at −80° C. for purification.
Column was washed with 500 mM NaCl in buffer A and Flag-CARM1-His was eluted with 200 ug/ml FLAG peptide in buffer A. Pooled fractions were dialyzed in 20 mM Tris, 150 mM NaCl, 5% glycerol and 1 mM DTT, pH 7.8. The purity of recovered protein was 94.
General Procedure for CARM1 Enzyme Assays on Peptide Substrates.
The assays were all performed in a buffer consisting of 20 mM Bicine (pH=7.6), 1 mM TCEP, 0.005% BSG, and 0.002% Tween 20, prepared on the day of use. Compounds in 100% DMSO (1 ul) were spotted into a polypropylene 384-well V-bottom plates (Greiner) using a Platemate Plus outfitted with a 384-channel head (Thermo Scientific). DMSO (1 ul) was added to Columns 11, 12, 23, 24, rows A-H for the maximum signal control and 1 ul of SAH, a known product and inhibitor of CARM1, was added to columns 11, 12, 23, 24, rows I-P for the minimum signal control. A cocktail (40 ul) containing the CARM1 enzyme was added by Multidrop Combi (Thermo-Fisher). The compounds were allowed to incubate with CARM1 for 30 min at room temperature, then a cocktail (10 ul) containing ^3H-SAM and peptide was added to initiate the reaction (final volume=51 ul). The final concentrations of the components were as follows: CARM1 was 0.25 nM, ^3H-SAM was 30 nM, peptide was 250 nM, SAH in the minimum signal control wells was 1 mM, and the DMSO concentration was 2%. The assays were stopped by the addition of non-radiolabeled SAM (10 ul) to a final concentration of 300 uM, which dilutes the ^3H-SAM to a level where its incorporation into the peptide substrate is no longer detectable. 50 ul of the reaction in the 384-well polypropylene plate was then transferred to a 384-well Flashplate and the biotinylated peptides were allowed to bind to the streptavidin surface for at least 1 hour before being washed once with 0.1% Tween20 in a Biotek ELx405 plate washer. The plates were then read in a PerkinElmer TopCount plate reader to measure the quantity of ^3H-labeled peptide bound to the Flashplate surface, measured as disintegrations per minute (dpm) or alternatively, referred to as counts per minute (cpm).
Where dpm=disintegrations per minute, cmpd=signal in assay well, and min and max are the respective minimum and maximum signal controls.
Where top and bottom are the normally allowed to float, but may be fixed at 100 or 0 respectively in a 3-parameter fit. […]

Row | IC50 [nM] | SMILES
1 | 57.3 | CNCCN(C)Cc1cccc(-c2cc(C(=O)N[C@@H](C)c3ccccc3)c3cnn(Cc4cccnc4)c3n2)c1 [Compound 249]
2 | 55.5 | CNCCN(C)Cc1cccc(-c2cc(C(=O)NC(C)c3ccccc3)c3cnn(C4CCOCC4)c3n2)c1 (stereo not shown) [Compound 248]
3 | 283 | CNCCN(C)Cc1cccc(-c2cc(C(=O)N(C)CC(F)(F)F)c3cnn(C(C)C)c3n2)c1 [Compound 310]
4 | 379 | CCOC(=O)c1cc(-c2cccc(CN(C)CCNC)c2)nc2c1cnn2CC(F)(F)F [Compound 316]
5 | 11.7 | Cc1cc(CNC(=O)c2cc(-c3cccc(CN(C)CCN)c3)nc3c2cnn3C(C)C)no1 [Compound 184]
6 | 7.35 | CNCCN(C)Cc1cccc(-c2cc(N3CCCCC3)c3cnn(C(C)C)c3n2)c1 [Compound 177]
7 | 25.4 | CNCCN(C)Cc1cccc(-c2cc(C(=O)N[C@@H](C)c3ccccc3)c3cn(Cc4ccccc4)nc3n2)c1 [Compound 213]
8 | 312 | CNCCN(C)Cc1cccc(-c2cc(C(=O)N3CCC(F)C3)c3cnn(C(C)C)c3n2)c1 (stereo not shown) [Compound 313]
9 | 19.2 | CNCCN(C)Cc1cccc(-c2cc(OCC3CC3)c3cnn(C(C)C)c3n2)c1 [Compound 203]
10 | 32.6 | CNCCN(C)Cc1cccc(-c2cc(C(=O)N[C@@H](C)c3ccccc3)c3cn(Cc4ccccn4)nc3n2)c1 [Compound 221]
11 | 168 | CNCCN(C)Cc1cccc(-c2cc(C(=O)N3Cc4ccccc4C3)c3cnn(C(C)C)c3n2)c1 [Compound 291]
12 | 7.51 | CNCCN(C)Cc1cccc(-c2cc(-c3csc(C)n3)c3cnn(C(C)C)c3n2)c1 [Compound 178]
13 | 75.2 | Cc1c(C(=O)NCC2CCOCC2)cc(-c2cccc(CN(C)CCN)c2)cc1N(C)CC1CC1 [Compound 267]
14 | 46 | CNCCN(C)Cc1cccc(-c2cc(C(=O)N[C@@H](C)c3ccccc3)c3cn(Cc4cccnc4)nc3n2)c1 [Compound 236]
15 | 19.2 | CC(C)n1ncc2c(C(=O)NCC3COC3)cc(-c3cccc(CN(C)CCN)c3)nc21 [Compound 204]
16 | 31.6 | CNCCN(C)Cc1cccc(-c2cc(C(=O)NCC3COC3)c3cnn(C(C)C)c3n2)c1 [Compound 219]
17 | 12.9 | CNCCN(C)Cc1cccc(-c2cc(Nc3ccncc3)c3cnn(C(C)C)c3n2)c1 [Compound 191]

Continued, compound first:

Row | SMILES | IC50 [nM]
18 | CNCCN(C)Cc1cccc(-c2cc(C(=O)NCC3CCOCC3)c3cnn(CC#N)c3n2)c1 [Compound 306] | 243
19 | CNCCN(C)Cc1cccc(-c2cc(C(=O)NCC3CCOCC3)c3cnn(Cc4ccccn4)c3n2)c1 [Compound 318] | 398
20 | CNCCN(C)Cc1cccc(-c2cc(NCC3CC3)c3cnn(C(C)C)c3n2)c1 [Compound 226] | 39.5
21 | CC(C)n1cc2c(C(=O)NC3CCOCC3)cc(-c3cccc(CN(C)CCN)c3)nc2n1 [Compound 308] | 254
22 | CNCCN(C)Cc1cccc(-c2cc(C(=O)N3CCSCC3)c3cnn(C(C)C)c3n2)c1 [Compound 322] | 456
23 | CNCCN(C)Cc1cccc(-c2cc(-c3cn[nH]c3)c3cnn(C(C)C)c3n2)c1 [Compound 192] | 13.1
24 | CNCCN(C)Cc1cccc(-c2cc(C(=O)N(C)C3CCOCC3)c3cnn(C(C)C)c3n2)c1 [Compound 320] | 410
25 | CNCCN(C)Cc1cccc(-c2cc(N(CC3CC3)CC3CC3)c3cnn(C(C)C)c3n2)c1 [Compound 218] | 30.9
26 | CNCCN(C)Cc1cccc(-c2cc(C(O)C3CCOCC3)c3cnn(C(C)C)c3n2)c1 (stereo not shown) [Compound 315] | 368
27 | Cc1cc(C)c(CNC(=O)c2cc(-c3cccc(CNCCN(C)C)c3)nc3c2cnn3C(C)C)c(=O)[nH]1 [Compound 369] | 501
28 | CNCCN(C)Cc1cccc(-c2cc(-c3ccncc3)c3cnn(C(C)C)c3n2)c1 [Compound 196] | 14.3
29 | CNCCN(C)Cc1cccc(-c2cc(C(=O)N[C@@H](C)c3ccccc3)c3cn(Cc4ccccc4F)nc3n2)c1 [Compound 305] | 240
30 | CNCCN(C)Cc1cccc(-c2cc(C(=O)N3CCC(F)(F)C3)c3cnn(C(C)C)c3n2)c1 [Compound 299] | 203
31 | Cc1cc(C)c(CNC(=O)c2cc(-c3ccc(CN(C)CCN4CCCC4)cc3)nc3c2cnn3C(C)C)c(=O)[nH]1 [Compound 364] | 50000
32 | CNCCN(C)Cc1cccc(-c2cc(CN(C)OC)c3cnn(C(C)C)c3n2)c1 [Compound 264] | 74.1
33 | CNCCN(C)Cc1cccc(-c2cc(C(=O)N[C@@H](C)c3ccccc3)c3cn(Cc4ccncc4)nc3n2)c1 [Compound 216] | 29.9
34 | CNCCN(C)Cc1cccc(-c2cc(C(=O)NCc3ccccc3Cl)c3cnn(C(C)C)c3n2)c1 [Compound 268] | 77.3
35 | CNCCN(C)Cc1cccc(-c2cc(C(=O)N[C@@H](C)c3ccccc3)c3cnn(Cc4ccccn4)c3n2)c1 [Compound 225] | 38.1
36 | CNCCN(C)Cc1cccc(-c2cc(C(=O)NC3CCOCC3)c3cnn(CC4CC4)c3n2)c1 [Compound 314] | 334
37 | Cc1cc(C)c(CNC(=O)c2cc(-c3cc(CN(C)CCN)ccc3C)cc3c2cnn3C(C)C)c(=O)[nH]1 [Compound 389] | 232
38 | CNCCN(C)Cc1cccc(-c2cc(C(=O)N3CCOCC3)c3cnn(C(C)C)c3n2)c1 [Compound 321] | 453
39 | CNCCN(C)Cc1cccc(-c2cc(C(=O)N3CCC(OC)C3)c3cnn(C(C)C)c3n2)c1 (stereo not shown) [Compound 302] | 233
40 | CNCCN(C)Cc1cccc(-c2cc(C(=O)NCC3CCOCC3)c3cnn(CC4CC4)c3n2)c1 [Compound 285] | 139
41 | CNCCN(C)Cc1cccc(-c2cc(C(=O)NC(C)c3ccccc3)c3cn(C4CCOCC4)nc3n2)c1 (stereo not shown) [Compound 312] | 311
42 | CNCCN(C)Cc1cccc(-c2cc(-c3c(C)n[nH]c3C)c3cnn(C(C)C)c3n2)c1 [Compound 200] | 16.7
43 | CNCCN(C)Cc1cccc(-c2cc(C(=O)NCC3CCOCC3)c3cnn(Cc4cccnc4)c3n2)c1 [Compound 317] | 386
